The subject of assay [1] is sporadic PD patient fibroblasts. Kind of assay: Cellular ATP levels (ATPlite, normalised to CyQUANT DNA content) in sporadic PD patient fibroblasts. The format is cell-based. The following applies: Homo sapiens, Fibroblast, 24 h; for activity at 60 pM: read-out: Cellular ATP levels Bottom (% of vehicle treated); for activity at 0.3 µM: read-out: Cellular ATP levels Top (% of vehicle treated). On the procedure:
(§1) Fibroblasts were cultured in DMEM (Invitrogen) and routinely subcultured every 3-5 days using trypsin to dissociate them.
The ATP protocol is generally as described in Mortiboys et al, “Mitochondrial function and morphology are impaired in parkin-mutant fibroblasts”, Ann Neurol. 2008 November; 64(5):555-65. Briefly, fibroblasts were cultured as and plated into white 384 well plates with 5000 cells per well in 50 μl of media volume. The plates are left overnight in an incubator to allow the fibroblasts to adhere to the plate surface. The following morning the Glucose based medium is replaced with 25 μl of Galactose based medium. The compounds are added to the plates using a ECHO 550 liquid handling system. The wells were dosed to provide an 8-point concentration range of 0.06 nM-300 nM of compound. After dosing the wells are topped up with a further 25 μl of Galactose based medium and then left in an incubator for 24 hours. Following this incubation the medium is removed from the plate and the wells are washed twice with sterile PBS. The wells are filled with 25 μl of Sterile PBS followed by 12.5 μl of Lysis solution from the ATPlite™ Luminescence ATP detection assay system (Perkin Elmer), including 16 cell free wells to use as blank controls. The plate is then placed on a rotary shaker for 5 mins at 700 rpm. Following the shaking 12.5 μl of ATP substrate solution (Perkin Elmer) is added to each well and a further 5 min of shaking. The plate is then placed in darkness for 10 minutes prior to reading. Using a PHERAStar® plate reader, luminescence intensity is recorded. Following the ATP assay the plates are immediately assayed for DNA content in a CyQUANT® assay.
Immediately following The ATP assay DNA content is assessed with the CyQUANT® NF Cell Proliferation Assay Kit (ThermoFisher). CyQUANT® buffer is prepared immediately before the assay and is comprised of 1 ul CyQUANT® dye per ml×1 HBSS solution. 12.5 ul of CyQUANT® buffer is added to each well. Plate left in incubator for 1 hour then read on a PHERAStar® Plate reader with excitation at 497 nm and emission at 520 nm. ATP Quantification for each well is determined using the following formula: […]
(§2) After the assays had been repeated in triplicate per line and compound the data was then inputted into Graph pad Prism 7 software suite where a dose response curve is generated using the default “[Agonist] vs response (three parameters)” equation.
(§3) From this EC50 values, lowest response and maximal response were taken and used to calculate the Geometric mean between the 5 different lines assessed.
Cellular ATP levels were measured in fibroblasts from 6 (Table 3) or 3 (Table 4) patients with sporadic Parkinson's disease when treated with Compounds of the invention or Comparator compounds. The results are shown in Tables 3 and 4, where “Bottom”=max response with lowest dose of compound (0.06 nM) and “top”=max response with highest dose of compound (300 nM).
On the technique in general: In ATP-based viability assays light output follows the ATP content of the culture.

For assay [2] the test system is unchanged. Kind of assay: Mitochondrial membrane potential (MMP, TMRM) in sporadic PD patient fibroblasts. It is filed as cell-based. As to conditions: Homo sapiens, Fibroblast, 24 h; for activity at 60 pM: read-out: MMP Bottom (% of vehicle treated); for activity at 0.3 µM: read-out: MMP Top (% of vehicle treated). The procedure:
as §1
Fibroblasts were cultured and plated into a Griener black 384 pClear® plate at 10000 cells per well in 50 μl of media volume. The plates are left overnight in an incubator to allow the fibroblasts to adhere to the plate surface. The following morning the Glucose based medium is replaced with 25 μl of Galactose based media. The plates were then dosed with the compounds using an ECHO® 550 liquid handling system. The wells were dosed to provide an 8-point concentration range of 0.06 nM-300 nM of compound. After dosing the wells are topped up with a further 25 μl of Galactose based medium and then left in an incubator for 24 hours. After 24 hours, the medium is removed from the wells and replaced with 25 ul phenol free Minimal essential medium with 100 nM TMRM (Sigma) and 10 μM Hoechst Stain (Sigma). The plate is returned to the incubator for another hour after which the stain medium is removed and replaced with 25 ul Phenol free MEM. The plate is then imaged using an IN Cell high content microscope (GE Healthcare) with 10 fields of view per well in 2 channels, Cy3 excitation 542 nm, emission 604-64 nm; and the DAPI excitation 350 nm, emission 450-55 nm at 37° C. with CO2. After imaging the plate is disposed of and the images are Data mined using the INCell developer Toolkit (GE Healthcare).
as §2, §3
The mitochondrial membrane potential was measured in fibroblasts from 6 (Table 1) or 3 (Table 2) patients with sporadic Parkinson's disease when treated with Compounds of the invention or Comparator compounds. The results are shown in Tables 1 and 2, where “Bottom”=max response with lowest dose of compound (0.06 nM) and “top”=max response with highest dose of compound (300 nM).

The mark [3] stands for this setting: read-out: Cellular ATP levels EC50 (nM).
Setting [4] is: 3 sporadic PD patient fibroblasts, read-out: Cellular ATP levels EC50.
The mark [5] stands for this setting: max response with highest dose (300 nM), 3 sporadic PD patient fibroblasts.
[6] abbreviates: max response with lowest dose (0.06 nM), 3 sporadic PD patient fibroblasts.
[7] abbreviates: 3 sporadic PD patient fibroblasts, read-out: MMP EC50.
Setting [8] is: max response with highest dose (300 nM), 6 sporadic PD patient fibroblasts.
Where [9] appears, read: max response with lowest dose (0.06 nM), 6 sporadic PD patient fibroblasts.

Structures can show the parent of a compound that is named as a salt.

For `C[C@H](CCC(=O)O)[C@H]1CC[C@H]2[C@@H]3[C@@H](O)C[C@@H]4C[C@H](O)C(F)(F)C[C@]4(C)[C@H]3CC[C@]12C` [Compound 9, 2,2-difluoro-3α,7β-dihydroxy-5β-cholanic acid], the activity at 60 pM is 99% in assay [1] and 110% in assay [2]. Also, the figures for the EC50 in assay [1] (setting [3]) and in assay [2] (read-out: MMP EC50 (nM)) were 21.3 nM and 2.19 nM, respectively. Besides, the activity at 0.3 µM in assay [1] stood at 103%; in assay [2] it was 112%.

For the molecule `C[C@H](CCC(=O)N1CCC[C@H](C(=O)O)C1)[C@H]1CC[C@H]2[C@@H]3[C@@H](O)C[C@@H]4C[C@@H](O)C(F)(F)C[C@]4(C)[C@H]3CC[C@]12C` [Compound 14, Sodium 1-(2,2-difluoro-3β,7β-dihydroxy-5β-cholan-24-oyl)-piperidine-3-carboxylate], the values for the activity at 60 pM in assay [1] and in assay [2] were 107% and 94.3%, respectively. Further, the EC50 in assay [1] (setting [3]) stood at 1.3 nM; in assay [2] (read-out: MMP EC50 (nM)), 18.9 nM. Also, the activity at 0.3 µM in assay [1] stood at 127%; in assay [2], 167%.

For `C[C@H](CCC(=O)NCC(=O)O)[C@H]1CCC2C3C(CC[C@@]21C)[C@@]1(C)CC(F)(F)[C@H](O)C[C@H]1C[C@@H]3O` (stereo partly drawn) [Compound 17, Sodium N-(2,2-difluoro-3β,7β-dihydroxy-5β-cholan-24-amide)-methylcarboxylic acid], the values for the activity at 60 pM in assay [1] and in assay [2] were 101% and 88.9%, respectively. Further, the EC50 in assay [1] (setting [3]) was 17.2 nM; in assay [2] (read-out: MMP EC50 (nM)), 128 nM. The figures for the activity at 0.3 µM in assay [1] and in assay [2] were 132% and 152%, respectively.

For `C[C@H](CCC(=O)N(C)CCS(=O)(=O)O)[C@H]1CCC2C3C(CC[C@@]21C)[C@@]1(C)CC(F)(F)[C@H](O)C[C@H]1C[C@@H]3O` (stereo partly drawn) [Compound 19, Sodium N-(methyl)-N-(2,2-difluoro-3β,7β-dihydroxy-5β-cholan-24-amide) ethylsulfonic acid], the activity at 60 pM in assay [1] came to 98.8%; in assay [2] it was 95.9%. The EC50 in assay [1] (setting [3]) was determined as 8.9 nM; in assay [2] (read-out: MMP EC50 (nM)), 104 nM. For the same molecule, the activity at 0.3 µM in assay [1] was found to be 122%; in assay [2] it was 143%.

For the molecule `C[C@H](CCC(=O)NCCCS(=O)(=O)O)[C@H]1CC[C@H]2[C@@H]3[C@@H](O)C[C@@H]4C[C@@H](O)C(F)(F)C[C@]4(C)[C@H]3CC[C@]12C` [Compound 20, Sodium 3-(2,2-difluoro-3β,7β-dihydroxy-5β-cholan-24-oyl) amino-propanesulfonate], the figures for the activity at 60 pM in assay [1] and in assay [2] were 102% and 99.8%, respectively. Further, the EC50 turned out to be 34.7 nM in assay [1] (setting [3]) and 17.7 nM in assay [2] (read-out: MMP EC50 (nM)). Moreover, the activity at 0.3 µM in assay [1] is 122%; in assay [2], 147%.

In the case of `C[C@H](CCC(=O)NCCOS(=O)(=O)O)[C@H]1CC[C@H]2[C@@H]3[C@@H](O)C[C@@H]4C[C@@H](O)C(F)(F)C[C@]4(C)[C@H]3CC[C@]12C` [Compound 22, Sodium N-(2,2-difluoro-3β,7β-dihydroxy-5β-cholan-24-oyl)-2-aminoethyl sulfate], the activity at 60 pM worked out at 95.9% in assay [1] and 99.3% in assay [2]. The figures for the 50% effective concentration (EC50) in assay [1] (setting [3]) and in assay [2] (read-out: MMP EC50 (nM)) were 6.2 nM and 45.4 nM, respectively. The activity at 0.3 µM in assay [1] was determined as 116%; in assay [2], 146%.

For the molecule `C[C@H](CCC(=O)NCCS(C)(=O)=O)[C@H]1CC[C@H]2[C@@H]3[C@@H](O)C[C@@H]4C[C@@H](O)C(F)(F)C[C@]4(C)[C@H]3CC[C@]12C` [Compound 27, N-(2,2-difluoro-3β,7β-dihydroxy-5β-cholan-24-oyl) 2-aminoethyl methyl sulfone], the values for the 50% effective concentration (EC50) in assay [1] (setting [4]) and in assay [2] (setting [7]) were 16.6 nM and 171 nM, respectively. The figures for the activity at 0.3 µM in assay [1] (setting [5]) and in assay [2] (setting [5]) were 114% and 159%, respectively. The activity at 60 pM was determined as 101% in assay [1] (setting [6]) and 103% in assay [2] (setting [6]).

For the molecule `C[C@H](CCC(=O)N1CCS(=O)(=O)CC1)[C@H]1CCC2C3C(CC[C@@]21C)[C@@]1(C)CC(F)(F)[C@H](O)C[C@H]1C[C@@H]3O` (stereo partly drawn) [Compound 30, N-(2,2-difluoro-3β,7β-dihydroxy-5β-cholan-24-oyl)-thiomorpholine-dioxide], the values for the EC50 in assay [1] (setting [4]) and in assay [2] (setting [7]) were 4.2 nM and 21 nM, respectively. For the same molecule, the values for the activity at 0.3 µM in assay [1] (setting [5]) and in assay [2] (setting [5]) were 115% and 156%, respectively. Moreover, the activity at 60 pM turned out to be 96.7% in assay [1] (setting [6]) and 98.4% in assay [2] (setting [6]).

On to `C[C@H](CCC(=O)NC1CCCS(=O)(=O)C1)[C@H]1CC[C@H]2[C@@H]3[C@@H](O)C[C@@H]4C[C@@H](O)C(F)(F)C[C@]4(C)[C@H]3CC[C@]12C` (stereo partly drawn) [Compound 31, N-(2,2-difluoro-3β,7β-dihydroxy-5β-cholan-24-oyl) 1,1-dioxidotetrahydro-2H-thiopyran-3-ylamine], for which the 50% effective concentration (EC50) in assay [1] (setting [4]) amounted to 13.3 nM; in assay [2] (setting [7]), 5.5 nM. In addition, the activity at 0.3 µM was found to be 133% in assay [1] (setting [5]) and 151% in assay [2] (setting [5]). The activity at 60 pM in assay [1] (setting [6]) stood at 108%; in assay [2] (setting [6]) it was 99.6%.

In the case of `C[C@H](CCC(=O)O)[C@H]1CC[C@H]2[C@@H]3C(=O)C[C@@H]4CC(=O)C(F)(F)C[C@]4(C)[C@H]3CC[C@]12C` [Compound E, 2,2-difluoro-3,7-dioxo-5β-cholanic acid, reference compound], the EC50 in assay [1] (6 sporadic PD patient fibroblasts, read-out: Cellular ATP levels EC50) was determined as 18.8 nM; in assay [2] (6 sporadic PD patient fibroblasts, read-out: MMP EC50), 23.3 nM. Also, the activity at 0.3 µM is 136% in assay [1] (setting [8]) and 112% in assay [2] (setting [8]). In addition, the activity at 60 pM came to 81.6% in assay [1] (setting [9]) and 105% in assay [2] (setting [9]).

By EC50 is commonly meant the midpoint of the concentration-response curve.

The values are drawn from patent US20220073557A1, “FLUORINATED BILE ACIDS” (NZP UK LIMITED, priority 2018, published 2022).
